Experimental data reported in patent publication US11802127B2, “3,4-dihydro-2,7-naphthyridine-1,6(2H,7H)-diones as MEK inhibitors” (Pfizer Inc., priority 2021, dated 2023).
pIC50: −log10 of the molar value. Where a name gives a salt, the structure may show the parent alone.

Molecular target: T1, BCRP (hBCRP) (Homo sapiens, UniProt Q9UNQ0)
T1 construct: expressed in transfected cells; host or cells: MDCKII (canine kidney) cells, canine P-gp knockout, transfected with BCRP
T1 sequence (Q9UNQ0 1-655): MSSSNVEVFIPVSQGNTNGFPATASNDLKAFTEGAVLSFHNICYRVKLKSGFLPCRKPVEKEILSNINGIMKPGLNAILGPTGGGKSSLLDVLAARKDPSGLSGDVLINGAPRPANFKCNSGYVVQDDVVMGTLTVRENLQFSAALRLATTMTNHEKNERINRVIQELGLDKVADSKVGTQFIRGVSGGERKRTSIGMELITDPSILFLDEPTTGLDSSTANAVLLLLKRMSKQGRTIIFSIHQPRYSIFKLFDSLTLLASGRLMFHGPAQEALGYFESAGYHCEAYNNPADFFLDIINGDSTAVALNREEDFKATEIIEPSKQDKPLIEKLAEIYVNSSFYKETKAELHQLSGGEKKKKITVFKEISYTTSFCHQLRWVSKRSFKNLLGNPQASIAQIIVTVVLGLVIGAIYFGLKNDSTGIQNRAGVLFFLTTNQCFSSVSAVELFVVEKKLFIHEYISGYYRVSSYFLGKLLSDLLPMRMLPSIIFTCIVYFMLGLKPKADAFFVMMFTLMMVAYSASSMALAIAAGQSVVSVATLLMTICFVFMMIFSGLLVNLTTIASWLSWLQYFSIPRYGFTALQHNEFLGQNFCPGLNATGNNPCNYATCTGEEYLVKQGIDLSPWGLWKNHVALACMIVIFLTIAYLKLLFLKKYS
Assay: Efflux ratio in BCRP transfected MDCKII canine P-gp knockout cells
Format: in vitro ADME
Conditions: Papp(B−A)/Papp(A−B), read-out: Efflux ratio MDCKII-hBCRP knock-in,canine pg-P KO
Method: BCRP transfected MDCKII canine P-gp knockout cell line was cultured and plated according to manufacturer's recommendations.
Both positive and negative controls were used to assess functionality of P-gp or BCRP efflux in the assays. Stock solutions for assay controls and the test article were prepared in DMSO for final test concentrations of 10 and 1 μM, respectively. Final organic concentration in the assay was 1%. All dosing solutions contained 10 μM lucifer yellow to monitor LLC-PK1 or MDCKII cell monolayer integrity.
For the apical to basolateral determination (A to B), 75 μL of the test article in transport buffer were added to the apical side of the individual transwells and 250 μL of basolateral media, without compound or lucifer yellow, were added to each well. For the basolateral to apical determination (B to A), 250 μL of test article in transport buffer were added to each well and 75 μL transport buffer, without compound or lucifer yellow, were added to each transwell. All tests were performed in triplicate, and each compound was tested for both apical to basolateral and basolateral to apical transport. The plates were incubated for 2 hours on a Lab-Line Instruments Titer Orbital Shaker (VWR, West Chester, PA) at 50 rpm and 37° C. with 5% CO2. All culture plates were removed from the incubator and 50 μL of media were removed from the apical and basolateral portion of each well and added to 150 μL of 1 μM labetalol in 2:1 acetonitrile (acetonitrile): H2O, v/v.
The plates were read using a Molecular Devices (Sunnyvale, CA) Gemini Fluorometer to evaluate the lucifer yellow concentrations at excitation/emission wavelengths of 425/535 nm. These values were accepted when found to be below 2% for apical to basolateral and 5% basolateral to apical flux across the MDR1-transfected LLC-PK1 or BCRP-transfected MDCKII cell monolayers. The plates were sealed and the contents of each well analyzed by LC-MS/MS. The compound concentrations were determined from the ratio of the peak areas of the compound to the internal standard (labetalol) in comparison to the dosing solution.
The LC-MS/MS system was comprised of an HTS-PAL autosampler (Leap Technologies, Carrboro, NC), an HP1200 HPLC (Agilent, Palo Alto, CA), and a MDS Sciex 4000 Q Trap system (Applied Biosystems, Foster City, CA). […] The total run time, including re-equilibration, for a single injection was 1.2 minutes. Mass spectrometric detection of the analytes was accomplished using the ion spray positive mode. Analyte responses were measured by multiple reaction monitoring (MRM) of transitions unique to each compound (the protonated precursor ion and selected product ions for each test article and m/z 329 to m/z 162 for labetalol, the internal standard).
An efflux ratio is calculated from the mean apical to basolateral (A−B) Papp data and basolateral to apical (B−A) Papp data: Efflux ratio=Papp(B−A)/Papp(A−B)

efflux ratio at 2 h, 1 μM	Compound
1.5	Cn1c(Nc2ccc(Br)cc2F)c2c(cc1=O)C(c1ccccc1)CNC2=O (centres unmarked) [Example 64, 8-((4-bromo-2-fluorophenyl)amino)-7-methyl-4-phenyl-3,4-dihydro-2,7-naphthyridine-1,6(2H,7H)-dione]

System: ERK1/2(Thr202/Tyr204) phosphorylation (MEK-dependent) in A375 cells
Assay: Cellular Phospho-p44/42 MAPK (Erk1/2) (Thr202/Tyr204) Assay
Format: cell-based
Conditions: Homo sapiens, A-375, 1-hour incubation, pERK1/2 (Thr202/Tyr204) In-Cell Western normalized to GAPDH
Method: Inhibition of ERK1/2(Thr202/Tyr204) phosphorylation was determined by the following cellular assay, which comprises incubating cells with a compound for 1 hour and quantifying pERK signal by In-Cell Western on fixed cells and normalizing to GAPDH signal. A375 cells were obtained from the ATCC and grown in DMEM supplemented with 10% fetal bovine serum, penicillin/streptomycin, Glutamax®, non-essential amino acids, and sodium pyruvate. Cells were plated in 96-well plates at 30,000 cells/well and allowed to attach overnight at 37° C./5% CO2. Cells were treated with compounds prepared as a 10-point, 1:3 dilution series (range: 20 μM-0.05 nM; maximum concentration varied from 20 μM-1 μM), with a final DMSO concentration of 0.5%. Control wells contained either 0.5% DMSO alone (no inhibition control) or 1 μM of a potent control compound (complete inhibition control). After a 1-hour incubation, cells were fixed in 3.7% formaldehyde in dPBS (Dulbecco's phosphate-buffered saline) at room temperature for 20 minutes. Cells were then washed with dPBS and permeabilized in 100% MeOH at room temperature for 10 minutes. Following permeabilization, cells were washed in dPBS and incubated in LI-COR Blocking Buffer (LI-COR Biosciences, Cat #927-40000) for 1 hour or longer. Plates were then incubated with an antibody specific for the MEK-dependent ERK1/2 phosphorylation sites, threonine 202 and tyrosine 204 (Cell Signaling Technologies; Cat #9101), downstream of MEK in the MAP kinase signal transduction pathway, as well as GAPDH (Millipore; Cat #MAB374). pErk1/2 (Thr202/Tyr204) antibody was diluted in LI-COR blocking buffer containing 0.05% Tween-20 at 1:250; GAPDH was diluted at 1:2,500. The plates were incubated overnight at 4° C. After washing with PBS/0.05% Tween-20, the cells were incubated with fluorescently-labeled secondary antibodies (Anti-rabbit-Alexa Flour680, Invitrogen Cat #A21109; Anti-mouse-IRDye800CW, LI-COR Biosciences Cat #926-32210, both at 1:1000 dilution) for 1 hour. Cells were then washed, as above, and analyzed for fluorescence at both 680 and 800 nm wavelengths using the Odyssey CLx Infrared Imaging System (LI-COR Biosciences). Phosphorylated Erk1/2 (Thr202/Tyr204) signal was normalized to GAPDH signal for each well.

Compound	pIC50
Cn1c(Nc2ccc(Br)cc2F)c2c(cc1=O)CCN(OCC1CC1)C2=O [Example 2, 8-((4-bromo-2-fluorophenyl)amino)-2-(cyclopropylmethoxy)-7-methyl-3,4-dihydro-2,7-naphthyridine-1,6(2H,7H)-dione]	5.99
Cn1c(Nc2ccc(Br)c(F)c2F)c2c(cc1=O)CCN(OCCO)C2=O [Example 11, 8-((4-bromo-2,3-difluorophenyl)amino)-2-(2-hydroxyethoxy)-7-methyl-3,4-dihydro-2,7-naphthyridine-1,6(2H,7H)-dione]	6.70
Cn1c(Nc2ccc(Br)c(Cl)c2F)c2c(cc1=O)CCN(OCCO)C2=O [Example 12, 8-((4-bromo-3-chloro-2-fluorophenyl)amino)-2-(2-hydroxyethoxy)-7-methyl-3,4-dihydro-2,7-naphthyridine-1,6(2H,7H)-dione]	5.97
Cn1c(Nc2ccc(C(F)(F)F)cc2F)c2c(cc1=O)CCN(OCCO)C2=O [Example 13, 8-((2-fluoro-4-(trifluoromethyl)phenyl)amino)-2-(2-hydroxyethoxy)-7-methyl-3,4-dihydro-2,7-naphthyridine-1,6(2H,7H)-dione]	6.75
COc1ccc(Nc2c3c(cc(=O)n2C)CCN(OCCO)C3=O)c(F)c1 [Example 16, 8-((2-fluoro-4-methoxyphenyl)amino)-2-(2-hydroxyethoxy)-7-methyl-3,4-dihydro-2,7-naphthyridine-1,6(2H,7H)-dione]	6.56
Cn1c(Nc2ccc(SC(F)(F)F)cc2F)c2c(cc1=O)CCN(OCCO)C2=O [Example 17, 8-((2-fluoro-4-((trifluoromethyl)thio)phenyl)amino)-2-(2-hydroxyethoxy)-7-methyl-3,4-dihydro-2,7-naphthyridine-1,6(2H,7H)-dione]	6.59
CC(=O)c1ccc(Nc2c3c(cc(=O)n2C)CCN(OCCO)C3=O)c(F)c1 [Example 20, 8-((4-acetyl-2-fluorophenyl)amino)-2-(2-hydroxyethoxy)-7-methyl-3,4-dihydro-2,7-naphthyridine-1,6(2H,7H)-dione]	6.20
Cn1c(Nc2ccc(OC(F)(F)F)cc2F)c2c(cc1=O)CCN(OCCO)C2=O [Example 24, 8-((2-fluoro-4-(trifluoromethoxy)phenyl)amino)-2-(2-hydroxyethoxy)-7-methyl-3,4-dihydro-2,7-naphthyridine-1,6(2H,7H)-dione]	6.33
Cn1c(Nc2ccc(I)cc2F)c2c(cc1=O)CCN(OC(C)(C)C)C2=O [Example 30, 2-(tert-butoxy)-8-((2-fluoro-4-iodophenyl)amino)-7-methyl-3,4-dihydro-2,7-naphthyridine-1,6(2H,7H)-dione]	6.38
C[C@@H](O)CON1CCc2cc(=O)n(C)c(Nc3ccc(Br)cc3F)c2C1=O [Example 34, (R)-8-((4-bromo-2-fluorophenyl)amino)-2-(2-hydroxypropoxy)-7-methyl-3,4-dihydro-2,7-naphthyridine-1,6(2H,7H)-dione]	6.68
Cc1c2c(c(Nc3ccc(Br)cc3F)n(C)c1=O)C(=O)N(OC[C@@H](C)O)CC2 [Example 35, (R)-8-((4-bromo-2-fluorophenyl)amino)-2-(2-hydroxypropoxy)-5,7-dimethyl-3,4-dihydro-2,7-naphthyridine-1,6(2H,7H)-dione]	6.64
Cn1c(Nc2ccccc2F)c2c(c(I)c1=O)CCN(OCCO)C2=O [Example 41, 8-((2-fluorophenyl)amino)-2-(2-hydroxyethoxy)-5-iodo-7-methyl-3,4-dihydro-2,7-naphthyridine-1,6(2H,7H)-dione]	7.13
Cc1c2c(c(Nc3ccccc3F)n(C)c1=O)C(=O)N(OCCO)CC2Br (centres unmarked) [Example 43, 4-bromo-8-((2-fluorophenyl)amino)-2-(2-hydroxyethoxy)-5,7-dimethyl-3,4-dihydro-2,7-naphthyridine-1,6(2H,7H)-dione]	6.81
CCCc1ccc(Nc2c3c(cc(=O)n2C)CCNC3=O)c(F)c1 [Example 54, 8-((2-fluoro-4-propylphenyl)amino)-7-methyl-3,4-dihydro-2,7-naphthyridine-1,6(2H,7H)-dione]	6.78
Cc1c2c(c(Nc3ccc(OC(F)F)cc3F)n(C)c1=O)C(=O)NCC2 [Example 58, 8-((4-(difluoromethoxy)-2-fluorophenyl)amino)-5,7-dimethyl-3,4-dihydro-2,7-naphthyrdine-1,6(2H,7H)-dione]	7.35
Cn1c(Nc2ccc(Br)cc2Cl)c2c(cc1=O)CCNC2=O [Example 59, 8-((4-bromo-2-chlorophenyl)amino)-7-methyl-3,4-dihydro-2,7-naphthyridine-1,6(2H,7H)-dione]	7.14
Cn1c(Nc2ccc(Br)cc2F)c2c(cc1=O)CCN(CCO)C2=O [Example 60, 8-((4-bromo-2-fluorophenyl)amino)-2-(2-hydroxyethyl)-7-methyl-3,4-dihydro-2,7-naphthyridine-1,6(2H,7H)-dione trifluoroacetate]	6.29
CSc1ccc(Nc2c3c(cc(=O)n2C)CCN(OCC(F)F)C3=O)c(F)c1 [Example 63, 2-(2,2-difluoroethoxy)-8-((2-fluoro-4-(methylthio)phenyl)amino)-7-methyl-3,4-dihydro-2,7-naphthyridine-1,6(2H,7H)-dione]	6.94
Cn1c(Nc2ccc(Br)cc2F)c2c(cc1=O)C(c1ccccc1)CNC2=O (centres unmarked) [Example 64, 8-((4-bromo-2-fluorophenyl)amino)-7-methyl-4-phenyl-3,4-dihydro-2,7-naphthyridine-1,6(2H,7H)-dione]	8.70
